Key:
Experiment in all cases: relative viability (nuclei count vs DMSO), 5 days (fraction); higher = more cells survive
[1] = test system: NCI-H2126
In short: (§1)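 After 5 days of treatment, lung cancer cells in 1536-well plates were fixed and stained in a single step (final 0.05% Triton X-100, 1% formaldehyde, 1 ug/ml Hoechst) and their nuclei counted on 4× images. Treatment had been applied by pin tool the day after seeding as one drug alone or as a fixed anchor-drug dose with five library-drug doses (not always all listed) in √10 steps. Relative viability is the nuclei count of treated wells divided by that of vehicle wells, and values are medians of duplicate plates.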

[2] = test system: NCI-H23
In short: as §1

[3] = test system: HARA
In short: as §1

[4] = test system: NCI-H522
In short: as §1

[5] = test system: NCI-H838
In short: as §1

[6] = test system: NCI-H650
In short: as §1

[7] = test system: NCI-H1993
In short: as §1

[8] = test system: LCLC-103H
In short: as §1

[9] = test system: HCC-44
In short: as §1

[10] = test system: EMC-BAC-2
In short: as §1

[11] = test system: NCI-H3122
In short: as §1

[12] = test system: NCI-H1395
In short: as §1

[13] = test system: NCI-H441
In short: as §1

[14] = test system: NCI-H2347
In short: as §1

[15] = test system: NCI-H596
In short: as §1

[16] = test system: NCI-H2087
In short: as §1

[17] = test system: LOU-NH91
In short: as §1

[18] = test system: NCI-H647
In short: as §1

[19] = test system: BEN
In short: as §1

[20] = test system: NCI-H727
In short: as §1

[21] = test system: 201T
In short: as §1

For `Cc1sc2c(c1C)C(c1ccc(Cl)cc1)=N[C@@H](CC(=O)OC(C)(C)C)c1nnc(C)n1-2` [JQ1] + NC(=O)Nc1cc(-c2cccc(F)c2)sc1C(=O)N[C@H]1CCCNC1 [AZD7762] (partner 0.2 µM), the relative viability ([1]; first compound 0.04 µM) was 1.08, the relative viability ([1]; first compound 0.1265 µM) was 1.01 and the relative viability ([1]; first compound 0.4 µM) was 1.04. It also gave a relative viability ([1]; first compound 1.265 µM) of 0.956, a relative viability ([1]; first compound 4 µM) of 0.838 and a relative viability ([2]; first compound 0.04 µM) of 0.208. It also gave a relative viability ([2]; first compound 0.1265 µM) of 0.21, a relative viability ([2]; first compound 0.4 µM) of 0.215 and a relative viability ([2]; first compound 1.265 µM) of 0.127. For the same molecule, the relative viability ([2]; first compound 4 µM) was 0.105, the relative viability ([3]; first compound 0.04 µM) was 0.303 and the relative viability ([3]; first compound 0.1265 µM) was 0.431. It also gave a relative viability ([3]; first compound 0.4 µM) of 0.236, a relative viability ([3]; first compound 1.265 µM) of 0.155 and a relative viability ([3]; first compound 4 µM) of 0.242. For the same molecule, the relative viability ([4]; first compound 0.04 µM) was 0.974, the relative viability ([4]; first compound 0.1265 µM) was 0.685 and the relative viability ([4]; first compound 0.4 µM) was 0.774. For the same molecule, the relative viability ([4]; first compound 1.265 µM) was 0.52, the relative viability ([4]; first compound 4 µM) was 0.397 and the relative viability ([5]; first compound 0.04 µM) was 0.907. The relative viability ([5]; first compound 0.1265 µM) was 0.782, the relative viability ([5]; first compound 0.4 µM) was 0.817 and the relative viability ([5]; first compound 1.265 µM) was 0.805. It also gave a relative viability ([5]; first compound 4 µM) of 0.628, a relative viability ([6]; first compound 0.04 µM) of 0.935 and a relative viability ([6]; first compound 0.1265 µM) of 0.591. It also gave a relative viability ([6]; first compound 0.4 µM) of 1, a relative viability ([6]; first compound 1.265 µM) of 0.565 and a relative viability ([6]; first compound 4 µM) of 0.302. For the same molecule, the relative viability ([7]; first compound 0.04 µM) was 0.849, the relative viability ([7]; first compound 0.1265 µM) was 0.779 and the relative viability ([7]; first compound 0.4 µM) was 0.796. For the same molecule, the relative viability ([7]; first compound 1.265 µM) was 0.53, the relative viability ([7]; first compound 4 µM) was 0.488 and the relative viability ([8]; first compound 0.04 µM) was 0.778. For the same molecule, the relative viability ([8]; first compound 0.1265 µM) was 0.713, the relative viability ([8]; first compound 0.4 µM) was 0.701 and the relative viability ([8]; first compound 1.265 µM) was 0.492. For the same molecule, the relative viability ([8]; first compound 4 µM) was 0.438, the relative viability ([9]; first compound 0.04 µM) was 0.987 and the relative viability ([9]; first compound 0.1265 µM) was 1.14. For the same molecule, the relative viability ([9]; first compound 0.4 µM) was 1.06, the relative viability ([9]; first compound 1.265 µM) was 1.09 and the relative viability ([9]; first compound 4 µM) was 0.76. It also gave a relative viability ([10]; first compound 0.04 µM) of 1.08, a relative viability ([10]; first compound 0.1265 µM) of 0.869 and a relative viability ([10]; first compound 0.4 µM) of 0.975. The relative viability ([10]; first compound 1.265 µM) was 0.725, the relative viability ([10]; first compound 4 µM) was 0.627 and the relative viability ([11]; first compound 0.04 µM) was 1.04. It also gave a relative viability ([11]; first compound 0.1265 µM) of 0.965, a relative viability ([11]; first compound 0.4 µM) of 0.971 and a relative viability ([11]; first compound 1.265 µM) of 0.883. The relative viability ([11]; first compound 4 µM) was 0.693, the relative viability ([12]; first compound 0.04 µM) was 0.384 and the relative viability ([12]; first compound 0.1265 µM) was 0.379. The relative viability ([12]; first compound 0.4 µM) was 0.372, the relative viability ([12]; first compound 1.265 µM) was 0.348 and the relative viability ([12]; first compound 4 µM) was 0.361. It also gave a relative viability ([13]; first compound 0.04 µM) of 1.07, a relative viability ([13]; first compound 0.1265 µM) of 1.16 and a relative viability ([13]; first compound 0.4 µM) of 1.04. It also gave a relative viability ([13]; first compound 1.265 µM) of 0.369, a relative viability ([13]; first compound 4 µM) of 0.249 and a relative viability ([14]; first compound 0.04 µM) of 0.811. The relative viability ([14]; first compound 0.1265 µM) was 0.917, the relative viability ([14]; first compound 0.4 µM) was 0.724 and the relative viability ([14]; first compound 1.265 µM) was 0.445. For the same molecule, the relative viability ([14]; first compound 4 µM) was 0.357, the relative viability ([15]; first compound 0.04 µM) was 1.02 and the relative viability ([15]; first compound 0.1265 µM) was 0.898. For the same molecule, the relative viability ([15]; first compound 0.4 µM) was 0.704, the relative viability ([15]; first compound 1.265 µM) was 0.632 and the relative viability ([15]; first compound 4 µM) was 0.373. It also gave a relative viability ([16]; first compound 0.04 µM) of 1.34, a relative viability ([16]; first compound 0.1265 µM) of 1.29 and a relative viability ([16]; first compound 0.4 µM) of 1.29. For the same molecule, the relative viability ([16]; first compound 1.265 µM) was 0.604, the relative viability ([16]; first compound 4 µM) was 0.383 and the relative viability ([17]; first compound 0.04 µM) was 0.759. For the same molecule, the relative viability ([17]; first compound 0.1265 µM) was 0.609, the relative viability ([17]; first compound 0.4 µM) was 0.664 and the relative viability ([17]; first compound 1.265 µM) was 0.379. For the same molecule, the relative viability ([17]; first compound 4 µM) was 0.407, the relative viability ([18]; first compound 0.04 µM) was 0.472 and the relative viability ([18]; first compound 0.1265 µM) was 0.293. For the same molecule, the relative viability ([18]; first compound 0.4 µM) was 0.25, the relative viability ([18]; first compound 1.265 µM) was 0.103 and the relative viability ([18]; first compound 4 µM) was 0.0446. The relative viability ([19]; first compound 0.04 µM) was 0.718, the relative viability ([19]; first compound 0.1265 µM) was 0.585 and the relative viability ([19]; first compound 0.4 µM) was 0.644. It also gave a relative viability ([19]; first compound 1.265 µM) of 0.468, a relative viability ([19]; first compound 4 µM) of 0.372 and a relative viability ([20]; first compound 0.04 µM) of 0.735. It also gave a relative viability ([20]; first compound 0.1265 µM) of 0.61, a relative viability ([20]; first compound 0.4 µM) of 0.539 and a relative viability ([20]; first compound 1.265 µM) of 0.436. It also gave a relative viability ([20]; first compound 4 µM) of 0.405, a relative viability ([21]; first compound 0.04 µM) of 0.716 and a relative viability ([21]; first compound 0.4 µM) of 0.7. The relative viability ([21]; first compound 1.265 µM) was 0.498 and the relative viability ([21]; first compound 4 µM) was 0.393.

Reference: the supplement of paper PMC10307832
